Patent publication US10774071B2, “PD-1/PD-L1 inhibitors” (Gilead Sciences, Inc., priority 2018, dated 2020)
Read-outs that look alike come from different tables or passages of the source.

What was measured:
PD-1/PD-L1 = PD-1/PD-L1 (Homo sapiens (Human), UniProt Q9NZQ7); test: PD-1/PD-L1 biochemical protein-protein interaction assay (ALPHA); format: binding; conditions: read-out: IC50 PD-L1-PD1
Protocol: Compounds were tested in biochemical protein-protein interaction assays to determine if they can specifically block the interaction between the extracellular domains of PD-1/PD-L1 or CTLA/CD80. Binding of the protein pairs is measured using a bead based Amplified Luminescent Proximity Homogeneous Assay (ALPHA) platform. […] Final protein concentration in the assays were 0.3 nM (His tagged PD-L1), 2.5 nM (biotinylated Fc-PD-1), 1 nM (His tagged CTLA4) and 1 nM (biotinylated CD80).

PD-L1 = PD-L1 (Homo sapiens (Human), UniProt Q9NZQ7); test: PD-L1/PD-L1 dimerization biochemical protein-protein interaction assay (ALPHA); format: binding; conditions: read-out: AC50 PDL1 Dimer 1 nM
Chain of PD-L1 (Q9NZQ7 19-238): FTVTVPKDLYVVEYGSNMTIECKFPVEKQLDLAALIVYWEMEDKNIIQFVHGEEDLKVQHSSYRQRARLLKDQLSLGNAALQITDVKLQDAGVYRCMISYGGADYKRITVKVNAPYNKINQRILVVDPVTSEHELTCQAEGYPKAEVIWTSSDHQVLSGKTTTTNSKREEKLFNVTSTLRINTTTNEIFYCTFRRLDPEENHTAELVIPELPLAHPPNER
Chain of PD-L1 (Q9NZQ7 19-238): as above

[1] = 0.3 nM His tagged PD-L1, 2.5 nM biotinylated Fc-PD-1, Table 3B
[2] = 0.5 nM His tagged PD-L1 and 0.5 nM FLAG tagged PD-L1, Table 4B
[3] = 0.3 nM His tagged PD-L1, 2.5 nM biotinylated Fc-PD-1, readings of 0.064 nM are equal to or less than 0.064 nM
[4] = 0.5 nM His tagged PD-L1 and 0.5 nM FLAG tagged PD-L1, Table 4A

Chain of PD-1/PD-L1 (Q9NZQ7 19-238): as above

Row | SMILES | IC50 (PD-1/PD-L1; [1]) | AC50 (PD-L1; [2]) | IC50 (PD-1/PD-L1; [3]) | AC50 (PD-L1; [4])
1 | CNC(=O)C1CCN(Cc2cc(Cl)c(O[C@H]3CCc4c(-c5cccc(-c6ccc(CN7CC(C)(O)C7)c(OC)n6)c5Cl)cccc43)nc2OC)C1 (some centres unmarked) [B-86] | 0.235 nM | 109 nM |  | 
2 | COc1nc(O[C@H]2CCc3c(-c4cccc(-c5ccc(CNC[C@@H]6CCC(=O)N6)c(OCC#N)n5)c4Cl)cccc32)c(C(F)(F)F)cc1CNC1(C(=O)O)CC1 [B-125] | 0.064 nM | 6.79 nM |  | 
3 | COc1nc(-c2cccc(-c3cccc4c3CC[C@@H]4Oc3nc(OC)c(CN4C[C@@H]5C[C@]5(C(=O)O)C4)cc3Cl)c2Cl)ccc1CNC[C@@H]1CCC(=O)N1 [B-95] | 0.064 nM | 36.2 nM |  | 
4 | COc1nc(O[C@H]2CCc3c(-c4cccc(-c5cnc(CNC[C@@H]6CCC(=O)N6)c(OC)n5)c4Cl)cccc32)c(C(F)(F)F)cc1CNC1(C(=O)O)CC1 [B-225] | 0.064 nM | 5.32 nM |  | 
5 | COc1nc(-c2cccc(-c3cccc4c3CC[C@@H]4Oc3nc(OC)c(CN4CC5(C(=O)O)CCC4CC5)cc3Cl)c2Cl)ccc1CN1CC[C@@H](O)C1 [B-51] | 0.064 nM | 27.5 nM |  | 
6 | COc1nc(-c2cccc(-c3cccc4c3CC[C@@H]4Oc3nc(OC)c(CN4C[C@@H]5C[C@]5(C(=O)O)C4)cc3C(F)(F)F)c2Cl)ccc1CNC[C@@H]1CCC(=O)N1 [B-199] | 0.064 nM | 17.5 nM |  | 
7 | COc1nc(O[C@H]2CCc3c(-c4cccc(-c5cnc(CNC[C@@H]6CCC(=O)N6)cn5)c4Cl)cccc32)c(Cl)cc1CN1CC[C@@H](C(=O)O)C1 [B-97] | 0.064 nM | 66.4 nM |  | 
8 | COc1nc(-c2cccc(-c3cccc4c3CC[C@@H]4Oc3nc(OC)c(CN4C[C@H]5[C@@H]([C@H]4C(=O)O)C5(C)C)cc3Cl)c2Cl)ccc1CNC[C@@H]1CCC(=O)N1 [B-182] | 0.064 nM | 31.1 nM |  | 
9 | COc1nc(-c2cccc(-c3cccc4c3CC[C@@H]4Oc3nc(OC)c(CN4CC5(C(=O)O)CCC4CC5)cc3C(F)(F)F)c2Cl)ccc1CN[C@H]1C[C@](C)(O)C1 [B-4] | 0.064 nM | 20.9 nM |  | 
10 | COc1nc(-c2cccc(-c3cccc4c3CC[C@@H]4Nc3nc(OC)c(CNCC(=O)O)nc3C(F)(F)F)c2Cl)ccc1CNC[C@H]1C[C@](C)(O)C1 [A-87] |  |  | ≤ 0.064 nM | 22.3 nM
11 | COc1nc(-c2cccc(-c3cccc4c3CC[C@@H]4Nc3nc(OC)c(CN4CC5(C(=O)O)CCC4CC5)nc3C(F)(F)F)c2Cl)ccc1CNC[C@@H]1CC(O)C(=O)N1 (some centres unmarked) [A-47] |  |  | ≤ 0.064 nM | 22.3 nM
12 | COc1nc(-c2cccc(-c3cccc4c3CC[C@@H]4Oc3nc(OC)c(CN4CC5CC5(C(=O)O)C4)cc3Cl)c2Cl)ccc1CNC[C@@H]1CCC(=O)N1 (some centres unmarked) [B-99] | 0.086 nM | 67.9 nM |  | 
13 | COc1cc(-c2cccc(-c3cccc4c3CC[C@@H]4Oc3nc(OC)c(CNC(C)(C)CC(=O)O)cc3C(F)(F)F)c2Cl)cc(F)c1CNC[C@@H]1CCC(=O)N1 [B-192] | 0.064 nM | 6.8 nM |  | 
14 | COc1nc(-c2cccc(-c3cccc4c3CC[C@@H]4Oc3nc(OC)c(CN4CC[C@@H](C(=O)O)C4)cc3C(F)(F)F)c2Cl)ccc1CNC[C@@H]1CCC(=O)N1 [B-62] | 0.064 nM | 9.3 nM |  | 
15 | COc1nc(-c2cccc(-c3cccc4c3CC[C@@H]4Nc3nc(OC)c(CN4CC[C@@H](C(=O)O)C4)cc3C(F)(F)F)c2Cl)ccc1CN1CC2(CCC(=O)N2)C1 [A-24] |  |  | ≤ 0.064 nM | 38.8 nM
16 | COc1cc(O[C@H]2CCc3c(-c4cccc(-c5ccc(CNC[C@@H]6CCC(=O)N6)c(OC)n5)c4Cl)cccc32)c(C(F)(F)F)cc1CN1CC2CCC1C(C(=O)O)C2 (some centres unmarked) [B-224] | 0.064 nM | 10.6 nM |  | 
17 | COc1nc(-c2cccc(-c3cccc4c3CC[C@@H]4Nc3nc(OC)c(CN4C5CCC4(C(=O)O)CC5)cc3C(F)(F)F)c2Cl)ccc1CN1CC(C)(O)C1 [A-60] |  |  | ≤ 0.064 nM | 13.9 nM
18 | COc1cc(N[C@H]2CCc3c(-c4cccc(-c5ccc(CNC[C@@H]6CCC(=O)N6)c(OC)n5)c4Cl)cccc32)c(Cl)cc1CN1CC[C@H](C(=O)O)C1 [A-15] |  |  | ≤ 0.064 nM | 51.6 nM
19 | COc1nc(-c2cccc(-c3cccc4c3CC[C@@H]4Nc3nc(OC)c(CN4CCC[C@]4(C)C(=O)O)cc3C(F)(F)F)c2Cl)ccc1CNC[C@@H]1CCC(=O)N1 [A-38] |  |  | ≤ 0.064 nM | 16.9 nM
20 | COc1nc(-c2cccc(-c3cccc4c3CC[C@@H]4Oc3nc(OC)c(CN(C)[C@@H](C)C(=O)O)cc3C(F)(F)F)c2Cl)ccc1CNC[C@@H]1CCC(=O)N1 [B-257] | 0.064 nM | 8.73 nM |  | 
21 | COc1nc(-c2cccc(-c3cccc4c3CC[C@@H]4Oc3nc(OC)c(CNC4(C(=O)O)CC4)nc3C(F)(F)F)c2Cl)ccc1CNC[C@@H]1CCC(=O)N1 [B-247] | 0.064 nM | 10.4 nM |  | 
22 | COc1cc(-c2cccc(-c3cccc4c3CC[C@@H]4Oc3nc(OC)c(CN4CC5(C(=O)O)CCC4CC5)cc3C(F)(F)F)c2Cl)ccc1CNC[C@@H]1CCC(=O)N1 [B-140] | 0.064 nM | 2.28 nM |  | 

Row | SMILES | IC50 (PD-1/PD-L1; [1]) | AC50 (PD-L1; [2]) | IC50 (PD-1/PD-L1; [3]) | AC50 (PD-L1; [4])
23 | COc1nc(-c2cccc(-c3cccc4c3CC[C@@H]4Nc3nc(OC)c(CNCC(=O)O)nc3C(F)(F)F)c2Cl)ccc1CNC[C@H]1C[C@H](O)C1 [A-49] |  |  | ≤ 0.064 nM | 10.7 nM
24 | COc1nc(O[C@H]2CCc3c(-c4cccc(-c5cc(F)c(CNC[C@@H]6CCC(=O)N6)c(OC)n5)c4Cl)cccc32)c(C(F)(F)F)cc1CNC1(C(=O)O)CC1 [B-189] | 0.064 nM | 9.85 nM |  | 
25 | COc1nc(-c2cccc(-c3cccc4c3CC[C@@H]4Nc3nc(OC)c(CN4CC[C@@H](C(=O)O)C4)nc3C(F)(F)F)c2Cl)ccc1CNC[C@@H]1CCC(=O)N1 [A-19] |  |  | ≤ 0.064 nM | 26.1 nM
26 | COc1nc(-c2cccc(-c3cccc4c3CC[C@@H]4Nc3nc(OC)c(CN4C[C@H](C)C[C@H]4C(=O)O)nc3C(F)(F)F)c2Cl)ccc1CNC[C@@H]1CCC(=O)N1 [A-76] |  |  | ≤ 0.064 nM | 30.2 nM
27 | COc1nc(-c2cccc(-c3cccc4c3CC[C@@H]4Oc3nc(OC)c(CN4[C@@H]5C[C@@H]5C[C@H]4C(=O)O)cc3C(F)(F)F)c2Cl)ccc1CNC[C@@H]1CCC(=O)N1 [B-136] | 0.064 nM | 11 nM |  | 
28 | COc1nc(-c2cccc(-c3cccc4c3CC[C@@H]4Nc3nc(OC)c(CNC(C)(C)C(=O)O)nc3C(F)(F)F)c2Cl)ccc1CN[C@H]1C[C@](C)(O)C1 [A-95] |  |  | ≤ 0.064 nM | 21.2 nM
29 | COc1nc(-c2cccc(-c3cccc4c3CC[C@@H]4Oc3nc(OCc4cncc(Cl)c4)c(CN4CC5(C(=O)O)CCC4CC5)cc3Cl)c2Cl)ccc1CNC[C@@H]1CCC(=O)N1 [B-48] | 0.064 nM | 7.12 nM |  | 
30 | COc1nc(-c2cccc(-c3cccc4c3CC[C@@H]4Oc3nc(OC)c(CN[C@H](C(=O)O)C(C)C)cc3C(F)(F)F)c2Cl)ccc1CNC[C@@H]1CCC(=O)N1 [B-270] | 0.064 nM | 4.76 nM |  | 
31 | COc1nc(-c2cccc(-c3cccc4c3CC[C@@H]4Oc3nc(OC)c(CN4CC5(CC(C(=O)O)C5)C4)cc3Cl)c2Cl)ccc1CNC[C@@H]1CCC(=O)N1 [B-24] | 0.064 nM | 19.4 nM |  | 
32 | COc1cc(O[C@H]2CCc3c(-c4cccc(-c5ccc(CNC[C@@H]6CCC(=O)N6)c(OC)n5)c4Cl)cccc32)c(Cl)cc1CN1CC2(C(=O)O)CCC1CC2 [B-166] | 0.064 nM | 43.7 nM |  | 
33 | COc1nc(-c2cccc(-c3cccc4c3CC[C@@H]4Oc3nc(OC)c(CN4C[C@@H]5CCC[C@]5(C(=O)O)C4)cc3Cl)c2Cl)ccc1CNC[C@@H]1CCC(=O)N1 [B-92] | 0.064 nM | 54.5 nM |  | 
34 | COc1nc(-c2cccc(-c3cccc4c3CC[C@@H]4Oc3nc(OC)c(CN4CC(C(=O)O)C4)nc3C)c2Cl)ccc1CNC[C@@H]1CCC(=O)N1 [B-148] | 0.064 nM | 43.2 nM |  | 
35 | COc1nc(-c2cccc(-c3cccc4c3CC[C@@H]4Oc3nc(OC)c(CN4CC(C)(C(=O)O)C4)cc3Cl)c2Cl)ccc1CNC[C@@H]1CCC(=O)N1 [B-10] | 0.064 nM | 5.4 nM |  | 
36 | COc1cc(-c2cccc(-c3cccc4c3CC[C@@H]4Oc3nc(OC)c(CNC4(C(=O)O)CC4)cc3C(F)(F)F)c2Cl)ccc1CNC[C@@H]1CCC(=O)N1 [B-122] | 0.064 nM | 2.65 nM |  | 
37 | COc1nc(-c2cccc(-c3cccc4c3SC[C@@H]4Oc3nc(OC)c(CNC[C@@H]4CCC(=O)N4)cc3Cl)c2Cl)ccc1CNC[C@@H]1CCC(=O)N1 [B-103] | 0.234 nM | 58.5 nM |  | 
38 | COc1nc(-c2cccc(-c3cccc4c3CC[C@@H]4Nc3nc(OC)c(CNC[C@@H]4CCC(=O)N4)cc3Cl)c2Cl)ccc1CNC[C@@H]1CCC(=O)N1 [A-9] |  |  | 1.66 nM | 150 nM
39 | COc1nc(N[C@H]2CCc3c(-c4cccc(-c5ccc(CNC[C@@H]6CCC(=O)N6)c(OCC#N)n5)c4Cl)cccc32)c(C(F)(F)F)nc1CN1CC[C@@](C)(C(=O)O)C1 [A-26] |  |  | ≤ 0.064 nM | 13.4 nM
40 | COc1nc(-c2cccc(-c3cccc4c3CC[C@@H]4Nc3nc(OC)c(CN[C@H](C(=O)O)C4CC4)nc3C(F)(F)F)c2Cl)ccc1CNC[C@@H]1CCC(=O)N1 [A-101] |  |  | ≤ 0.064 nM | 3.9 nM
41 | COc1cc(-c2cccc(-c3cccc4c3CC[C@@H]4Nc3nc(OC)c(CN(C)CC(=O)O)nc3C(F)(F)F)c2Cl)cc(F)c1CNC[C@@H]1CCC(=O)N1 [A-30] |  |  | ≤ 0.064 nM | 9.89 nM
42 | COc1nc(-c2cccc(-c3cccc4c3CC[C@@H]4Nc3nc(OC)c(CN[C@@H](C)C(=O)O)cc3C(F)(F)F)c2Cl)ccc1CN[C@H]1C[C@](C)(O)C1 [A-66] |  |  | ≤ 0.064 nM | 19.6 nM
43 | COc1nc(-c2cccc(-c3cccc4c3CC[C@@H]4Oc3nc(OC)c(CN[C@@H](C)C(=O)O)cc3C(F)(F)F)c2Cl)ccc1CNC[C@@H]1CCC(=O)N1 [B-271] | 0.064 nM | 1.91 nM |  | 
